Assay results: the supplement of paper PMC5908809

Experiments:
Assay in all cases: percent inhibition of viability; higher = more inhibition
[1] = tested on: normal NK cells expanded with K562-aAPC; conditions: 72 h, IL-2 2.5 ng/mL
Experimental: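 Drug sensitivity and resistance testing on K562-aAPC-expanded normal NK cells: 5 concentrations (10-fold steps over a 10,000-fold range), 72 h at 37 °C, viability by CellTiter-Glo normalised to DMSO and benzethonium chloride controls; DSS from the fitted curve.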

DERL-7 (IL-2 2.5 ng/mL) = conditions: 72 h
IMC-1 (IL-2 20 ng/mL) = conditions: 72 h
KAI3 (IL-2 2.5 ng/mL) = conditions: 72 h
KHYG-1 (IL-2 2.5 ng/mL) = conditions: 72 h
NK-92 (IL-2 2.5 ng/mL) = conditions: 72 h
NK-YS (IL-2 2.5 ng/mL) = conditions: 72 h
NKL (IL-2 2.5 ng/mL) = conditions: 72 h
SNK-6 (IL-2 2.5 ng/mL) = conditions: 72 h

C=C(c1ccc(C(=O)O)cc1)c1cc2c(cc1C)C(C)(C)CCC2(C)C [Bexarotene] (max concentration tested 10000 nM)
percent inhibition of viability [%]
Conditions | DERL-7 (IL-2 2.5 ng/mL) | IMC-1 (IL-2 20 ng/mL) | KAI3 (IL-2 2.5 ng/mL) | KHYG-1 (IL-2 2.5 ng/mL) | NK-92 (IL-2 2.5 ng/mL) | NK-YS (IL-2 2.5 ng/mL) | NKL (IL-2 2.5 ng/mL) | SNK-6 (IL-2 2.5 ng/mL) | [1]
1 nM | -1.72 | -7.44 | -2.82 | 0.07 | -0.26 | -0.63 | -2.63 | -4.84 | -0.13
10 nM | -14.1 | -4.67 | 4.02 | -1.61 | -14.3 | -6.05 | -4.9 | -4.27 | -7.46
100 nM | -7.53 | -6.9 | 5.5 | 31.4 | 18 | 10.2 | 33.7 | – | -13.6
1000 nM | 1.51 | -7.39 | 12.6 | 35.3 | 38.2 | 30.5 | 59.2 | – | -8.25
10000 nM | 6.9 | 14.5 | 29.6 | 42.5 | 32.8 | 40.5 | 80.4 | – | -6.11
